# Experimental data taken from patent publication US20240327372A1, “PREPARATION OF PHENE[…] […] STEREOISOMERS THEREOF AND PRECURSORS THEREOF” (priority 2022, published 2024).
# Where a name gives a salt, the structure may show the parent alone.
# Experiments:
# hKCNQ1/hminK = hKCNQ1/hminK (Homo sapiens (Human), UniProt P51787); experiment: hKCNQ1/hminK Potassium Channel Assay, Qube APC; assay type: cell-based; conditions: KCNQ1/mink
# Procedure: (§1) Electrophysiological assays were conducted to profile three compounds ((R)-methylone, (S)-methylone, or racemic methylone) for activities on the ion channel targets specified below using the Qube electrophysiological platform. Where presented, IC50 values were determined by a non-linear, least squares regression analysis. Reference standards were run as an integral part of each assay to ensure the validity of the results obtained.
# (§2) Ion Channels tested were Eurofins Panel Part Number: CPROFullQB2DR Voltage-Gated Sodium: HEK-Nav1.5 (Peak), HEK-Nav1.5 (Late, Antagonist) Voltage-Gated Potassium: HEK-Kv4.3/KChIP2, CHO-hERG, CHO-KCNQ1/minK Voltage-Gated Calcium: HEK-Cav1.2 Inward-Rectifying Voltage-Gated Potassium: HEK-Kir2.1.
# hKCNQ1/hminK Potassium Channel Assay—Qube APC After whole cell configuration is achieved, the cells are held at −80 mV. KCNQ1/minK currents are evoked by a 1000 ms pulse from −80 mV to 60 mV followed by a ramp from 60 mV to −80 mV over 115 ms with the outward peak currents measured upon depolarization of the cell membrane. This paradigm is delivered once every 15 s to monitor the current amplitude.
# hKir2.1 = hKir2.1 (Homo sapiens (Human), UniProt P63252); assay type: cell-based
# Procedure: as §1, §2
# hKir2.1 Potassium Channel Assay—Qube APC After whole cell configuration is achieved, the cells are held at −30 mV. Kir2.1 currents are evoked by a single 500 ms pulse to −120 mV before returning to the holding potential of −30 mV. This paradigm is delivered once every 20 s to monitor the current amplitude.
# hKv4.3/hKChIP2 = hKv4.3/hKChIP2 (Homo sapiens (Human), UniProt Q9UK17); experiment: hKv4.3/hKChIP2 Potassium Channel Assay, Qube APC; assay type: cell-based
# Procedure: as §1, §2
# hKv4.3/hKChIP2 Potassium Channel Assay—Qube APC After whole cell configuration is achieved, the cells are held at −80 mV. Onset and steady state block of hKv4.3 current is measured using a pulse pattern from −80 mV to 40 mV amplitude for a 110 ms duration, and finally a 100 ms ramp (1.2 V/s) to −80 mV. This paradigm is delivered once every 5 s to monitor the current amplitude.
# [1] = Dynamic vapor sorption (DVS); assay type: physicochemical
# Procedure: (§3) Two lots of methylone HCl samples were submitted to evaluate the stability of the solid forms under various humidity conditions. Dynamic vapor sorption (DVS) analysis was performed to evaluate the kinetic hygroscopicity and assess if variable humidity XRPD would be necessary, as well as to determine the appropriate humidity condition(s) for such XRPD analysis. Both pre- and post-DVS samples were analyzed by conventional XRPD for solid form confirmation or any potential form changes.
# DVS analyses were carried out using a TA Instruments Q5000 Dynamic Vapor Sorption analyzer. The instrument was calibrated with standard weights and a sodium bromide standard for humidity. Approximately 12-13 mg of each powder sample was loaded into a metal-coated quartz pan for analysis. The samples were analyzed from 5 to 95% RH (adsorption cycle) and from 95 to 5% RH (desorption cycle) in 10% RH steps. The movement from one step to the next occurred either after satisfying the equilibrium criterion of 0.01% weight change in 5 minutes or, if the equilibrium criterion was not met, after 90 minutes. The percent weight change values were calculated using Microsoft EXCEL® 2016.
# [2] = XRPD of pre- and post-DVS samples (form stability); assay type: physicochemical; conditions: pre- versus post-DVS
# Procedure: as §3
# The XRPD patterns between the pre- and post-DVS samples were compared for lots 213220 and KRR-R&D-2022-II-58, respectively.
# Each sample was prepared in a silicon low background holder using light manual pressure to keep the sample surface flat and level with the reference surface of the sample holder. The single crystal Si low background holder has a circular recess (10 mm diameter and about 0.2 mm depth) that holds the sample. The Rigaku Smart-Lab diffraction system used was configured for Bragg-Brentano reflection geometry using a line source X-ray beam. The Bragg-Brentano geometry was controlled by passive divergence and receiving slits with the sample itself acting as the focusing component for the optics.
# hNav1.5 Late Current = hNav1.5 Late Current (Homo sapiens (Human), UniProt Q14524); experiment: hNav1.5 Late Current Sodium Channel Assay, Qube APC; assay type: cell-based; conditions: Nav1.5 Late Current, Antagonist mode, test compound
# Procedure: as §1, §2
# (§4) hNav1.5 Late Current Sodium Channel Assay—Qube APC Onset and steady state block of Late Nav1.5 current is measured using a pulse pattern, repeated every 5 sec, consisting of a hyperpolarizing pulse to −120 mV for a 200 ms duration, depolarization to −15 mV amplitude for a 40 ms duration, followed by step to 40 mV for 200 ms and finally a 100 ms ramp (1.2 V/s) to a holding potential of −80 mV. Late current is measured as charge current elicited during the ramp with 50 nM ATXII.
# hCav1.2 = hCav1.2 (Homo sapiens (Human), UniProt Q13936); experiment: hCav1.2 (L-type) Calcium Channel Assay, Qube APC; assay type: cell-based; conditions: Cav1.2, Antagonist mode, test compound
# Procedure: (§5) Where presented, IC50 values were determined by a non-linear, least squares regression analysis.
# (§6) Recombinant HEK-293 cells stably transfected with human Nav1.5 cDNA, recombinant HEK293 cell line expressing the human Cav1.2 (L-type voltage gated calcium channel, hCav1.2 α1C/β2a/α2δ1, and recombinant CHO-K1 cells stably transfected with human hERG cDNA were used separately in each of these assays.
# hCav1.2 (L-type) Calcium Channel Assay—Qube APC After whole cell configuration is achieved, the cells are held at −90 mV. Cav1.2 currents are evoked by a 50 ms pulse to −100 mV followed by a 200 ms pulse to +20 mV before returning to the holding potential of −90 mV. This paradigm is delivered three times every 60 s to monitor the current amplitude.
# hNav1.5 = hNav1.5 (Homo sapiens (Human), UniProt Q14524); experiment: hNav1.5 Sodium Channel Assay (peak), Qube APC; assay type: cell-based; conditions: Nav1.5, Antagonist mode, test compound
# Procedure: as §5, §6
# as §4, with “hNav1.5” for “hNav1.5 Late Current”, “of peak” for “of Late”, “mV. Peak” for “mV. Late”, “measured” for “measured as charge current elicited”, “the step to −15 mV.” for “the ramp with 50 nM ATXII.”
# Chain of hKv4.3/hKChIP2 (Q9UK17 whole entry, looked up): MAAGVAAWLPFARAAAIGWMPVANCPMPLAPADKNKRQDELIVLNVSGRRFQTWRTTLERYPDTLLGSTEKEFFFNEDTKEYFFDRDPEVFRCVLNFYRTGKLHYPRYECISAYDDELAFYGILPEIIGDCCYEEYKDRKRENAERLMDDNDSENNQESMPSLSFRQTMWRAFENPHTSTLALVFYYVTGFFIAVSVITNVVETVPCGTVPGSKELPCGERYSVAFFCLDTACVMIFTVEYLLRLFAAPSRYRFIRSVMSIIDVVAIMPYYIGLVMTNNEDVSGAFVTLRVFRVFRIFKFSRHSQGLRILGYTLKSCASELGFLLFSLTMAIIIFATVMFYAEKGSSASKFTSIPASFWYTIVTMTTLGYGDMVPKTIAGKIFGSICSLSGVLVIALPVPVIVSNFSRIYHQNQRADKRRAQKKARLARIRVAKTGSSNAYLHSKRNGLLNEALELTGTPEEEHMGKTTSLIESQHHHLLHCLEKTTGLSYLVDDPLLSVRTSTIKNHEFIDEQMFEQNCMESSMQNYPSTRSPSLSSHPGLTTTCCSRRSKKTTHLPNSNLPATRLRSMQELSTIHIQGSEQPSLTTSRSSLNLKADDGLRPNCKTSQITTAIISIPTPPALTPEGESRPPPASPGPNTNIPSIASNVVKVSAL
# Chain of hKv4.3/hKChIP2 (Q9NS61 whole entry partner, looked up): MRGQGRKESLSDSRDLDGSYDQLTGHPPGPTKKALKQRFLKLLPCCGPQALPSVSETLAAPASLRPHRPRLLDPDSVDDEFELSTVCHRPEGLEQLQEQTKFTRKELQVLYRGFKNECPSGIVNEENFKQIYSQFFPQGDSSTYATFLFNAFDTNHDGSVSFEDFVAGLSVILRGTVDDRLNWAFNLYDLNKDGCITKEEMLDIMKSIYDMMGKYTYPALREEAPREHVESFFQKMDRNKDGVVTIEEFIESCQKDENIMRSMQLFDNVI
# Chain of hKir2.1 (P63252 whole entry): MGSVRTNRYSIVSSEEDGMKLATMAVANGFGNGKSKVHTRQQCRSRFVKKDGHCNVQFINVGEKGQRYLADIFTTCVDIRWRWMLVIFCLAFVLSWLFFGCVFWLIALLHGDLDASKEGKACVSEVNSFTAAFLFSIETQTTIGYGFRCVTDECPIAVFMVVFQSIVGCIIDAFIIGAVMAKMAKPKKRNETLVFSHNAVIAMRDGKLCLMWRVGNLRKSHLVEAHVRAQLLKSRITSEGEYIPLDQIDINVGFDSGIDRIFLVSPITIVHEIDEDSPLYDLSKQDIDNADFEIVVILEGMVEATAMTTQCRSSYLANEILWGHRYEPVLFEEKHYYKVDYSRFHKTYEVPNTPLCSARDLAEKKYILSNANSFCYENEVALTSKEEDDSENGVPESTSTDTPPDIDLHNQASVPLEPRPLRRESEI
structure (smiles),measurement,setting,value
CCS(=O)(=O)N(C)[C@H]1c2cc(C#N)ccc2OC(C)(C)[C@@H]1O (racemic) [Chromanol 293B],IC50,"hKCNQ1/hminK; reference compound, read-out: Estimated IC50",45.3 µM
[Ba+2].[Cl-].[Cl-] [Barium Chloride],IC50,"hKir2.1; Kir2.1, reference compound, read-out: Estimated IC50",14.4 µM
O=C(NCC1CCCCN1)c1cc(OCC(F)(F)F)ccc1OCC(F)(F)F (centres unmarked) [Flecainide],IC50,"hKv4.3/hKChIP2; Kc4.3/ChIP2, reference compound, read-out: Estimated IC50",19.5 µM
"CNC(C)C(=O)c1ccc2c(c1)OCO2 (centres unmarked) [Lot 213220, methylone HCl]",Hysteresis upon desorption,[1],little to no hysteresis
same,Form changes of post-DVS samples (XRPD),[2],No form changes
"CNC(C)C(=O)c1ccc2c(c1)OCO2 (centres unmarked) [Methylone HCl, methylone HCl]",Estimated IC50,"hKv4.3/hKChIP2; Kc4.3/ChIP2, Antagonist mode, test compound",N/C (N/C indicates observed mean inhibition was <25%)
same,Estimated IC50,hNav1.5 Late Current,N/C (N/C indicates observed mean inhibition was <25%)
same,Estimated IC50,hCav1.2,N/C (N/C indicates observed mean inhibition was <25%)
same,Estimated IC50,hNav1.5,N/C (N/C indicates observed mean inhibition was <25%)
same,Estimated IC50,"hKir2.1; Kir2.1, Antagonist mode, test compound",N/C (N/C indicates observed mean inhibition was <25%)
same,Estimated IC50,"hKCNQ1/hminK; Antagonist mode, test compound",N/C (N/C indicates observed mean inhibition was <25%)
"CNC(C)C(=O)c1ccc2c(c1)OCO2.Cl [lot KRR-R&D-2022-II-58, methylone HCl]",Adsorbed water retained upon desorption,[1],approximately 0.06%
same,Hysteresis upon desorption,[1],slight hysteresis
same,Form changes of post-DVS samples (XRPD),[2],No form changes
